Test results taken from PubChem BioAssay AID1963426 (Molecular Pharmacology Branch, DTP, NCI, 2024).
Several values for one entry are separate records, joined by “and”; a condition that tells them apart may be missing. Equal entries are not always repeated.

Test system: 186277-243-T-J2-PDC complex spheroid growth, % test/control
Assay: Anticancer human tumor 186277-243-T-J2-PDC patient-derived colon adenocarcinoma cell line growth inhibition [Asc]
Settings: for viability, T/C: stronger effect = lower value
Description: Multicellular complex tumor spheroid response to apoptosis pathway targeting inhibitors Alrizomadlin, Pelcitoclax, and Dasminapant in combination with a variety of drugs and investigational agents in selected tumor cell lines
The MDM2 inhibitor alrizomadlin, the Bcl-2/Bcl-xL inhibitor pelcitoclax, and the IAPs inhibitor dasminapant were evaluated both individually and in combination with standard of care and investigational anticancer small molecules within a complex spheroid model of solid tumors. . Complex spheroids include a stromal component modeled by human endothelial cells (HUVEC) and fibroblasts modeled by human mesenchymal stem cells (MSCs). The concentration ranges selected for each drug and investigational agent were based upon clinically achievable concentrations if the clinical Cmax of the agent was known.
Compounds. The drugs and investigational agents: alrizomadlin (APG-115; NSC831270), pelcitoclax (APG-1252; NSC835773), dasminapant (APG-1387;NSC834197), TAK-243 (NSC785004), copanlisib (NSC809693), olaparib (NSC753686), talazoparib (NSC767125), cobimetinib (NSC 768068), eltanexor (KPT-8602, NSC 794443), abemaciclib (NSC 768073), sotorasib (NSC818433), adagrasib (NSC 831453), MRTX-1133 (NSC 836407), Iadademestat (ORY1001, NSC 806812), and RMC-4630 (NSC839698), were obtained from the NCI Developmental Therapeutics Program Chemical Repository. The FDA-approved anticancer drug set is available from the Developmental Therapeutics Program at https://dtp.cancer.gov/organization/dscb/obtaining/available plates.htm. […] The stock solutions were prepared in dimethyl sulfoxide (DMSO, Sigma-Aldrich, St. Louis, MO, cat. D2650) at 800-fold the tested concentration and stored at -70 degrees C prior to their use. All drugs and investigational agents were tested over a range starting from a high concentration at or near the clinical Cmax and decreasing in half-log increments. If the clinical Cmax for an agent had not been determined, the highest concentration tested was 10 microM.
The patient-derived cancer (PDC) cell lines include five colon adenocarcinomas: 186277-243-T-J2-PDC, 616215-338-R-J1-PDC, 439559-082-T-J2-PDC, 463943-066-T-J2-PDC, and 519858-162-T-J1-PDC; three pancreatic carcinomas: 323965-272-R-J2-PDC, 521955-158-R6-J3-PDC, and 521955-158-R2-J5-PDC; two uterine sarcomas: 327498-152-R-J2-PDC and 993429-296-R-J1-PDC; two rhabdomyosarcomas: 755483-174-R-J1-PDC and 772245-204-R-J1-PDC; two soft tissue sarcomas: 126254-015-R-J1-PDC and 494315-158-R-J1-PDC; two malignant fibrous histiocytomas: 317291-083-R-J1-PDC and 596521-263-R-J1-PDC; two breast carcinomas: 171881-019-R-J1-PDC and 885512-296-R-J2-PDC; and one ovarian carcinoma: 6556581-035-R-J-PDC were obtained from the NCI PDMR, (https://pdmr.cancer.gov). The established cell lines HSSY-2 synovial sarcoma (RRID:CVCL 8719), SYO-1 synovial sarcoma (RRID:CVCL_7146), MPNST malignant peripheral neural sheath tumor were obtained from the Sloan Kettering Institute. The following established cell lines were purchased from the American Type Culture Collection (ATCC, Manassas, VA), Sor the received from the NCI repository:, PANC-1 pancreatic carcinoma (CRL-1469, RRID:CVCL_0480), OVCAR-5 ovarian carcinoma (RRID:CVCL_1628), OVCAR-8 ovarian carcinoma (RRID:CVCL_1629), , MCF-7 breast carcinoma (CRL-12584, RRID:CVCL_0031), MDA-MB-231 breast carcinoma (CRL-12532, RRID:CVCL_0062), NCI-H1876 small cell lung carcinoma (CRL-5902, RRID:CVCL_1503), NCI-H510A small cell lung carcinoma (HTB-184, RRID:CVCL_1565), NCI-H1417 (CRL-5869, RRID:CVCL_1469), and NCI-H196 small cell lung carcinoma (CRL-5823, RRID:CVCL_1509). Dr. Peter Houghton (Greehey Children's Cancer Research Institute, University of Texas Health Science Center, San Antonio, TX) provided Rh-18 rhabdomyosarcoma (RRID:CVCL_1659). Pooled donor human umbilical vein endothelial cells (HUVEC, Lonza, cat. CC-2519) and human mesenchymal stem cells (hMSC, Lonza, cat. PT-2501) were purchased from Lonza (Walkersville, MD).
Cell Culture. […]

[1] = curve of first compound, second compound 0.01 µM
[2] = curve of first compound, second compound 0.0316 µM
[3] = curve of first compound, second compound 0.1 µM
[4] = curve of first compound, second compound 0.316 µM
[5] = curve of first compound, second compound 1 µM
[6] = second compound 0.01 µM, first compound 0.0316 µM
[7] = second compound 0.01 µM, first compound 0.1 µM
[8] = second compound 0.01 µM, first compound 0.316 µM
[9] = second compound 0.01 µM, first compound 1 µM
[10] = second compound 0.0316 µM, first compound 0.0316 µM
[11] = second compound 0.0316 µM, first compound 0.1 µM
[12] = second compound 0.0316 µM, first compound 0.316 µM
[13] = second compound 0.0316 µM, first compound 1 µM
[14] = second compound 0.1 µM, first compound 0.0316 µM
[15] = second compound 0.1 µM, first compound 0.1 µM
[16] = second compound 0.1 µM, first compound 0.316 µM
[17] = second compound 0.1 µM, first compound 1 µM
[18] = second compound 0.316 µM, first compound 0.0316 µM
[19] = second compound 0.316 µM, first compound 0.1 µM
[20] = second compound 0.316 µM, first compound 0.316 µM
[21] = second compound 0.316 µM, first compound 1 µM
[22] = second compound 1 µM, first compound 0.0316 µM
[23] = second compound 1 µM, first compound 0.1 µM
[24] = second compound 1 µM, first compound 0.316 µM
[25] = second compound 1 µM, first compound 1 µM
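Note: spheroids exposed to agents for 7 days.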
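Throughout, for viability, T/C: 100% = DMSO vehicle control wells.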

C=C(F)C(=O)N1CCN(c2nc(OCC3CCCN3C)nc3c2CCN(c2cccc4cccc(Cl)c24)C3)CC1CC#N (centres undefined) + CNC(C)C(=O)NC1CN(S(=O)(=O)c2cccc(S(=O)(=O)N3CCC4CCC(C(=O)NC(c5ccccc5)c5ccccc5)N4C(=O)C(NC(=O)C(C)NC)C3)c2)CCC2CCC(C(=O)NC(c3ccccc3)c3ccccc3)N2C1=O
IC50 [1]: 8.07 µM
IC50 [2]: 7.28 µM
IC50 [3]: 6.66 µM
IC50 [4]: 6.86 µM
IC50 [5]: 6.26 µM
viability, T/C [6]: 133%
viability, T/C [7]: 122%
viability, T/C [8]: 117%
viability, T/C [9]: 112%
viability, T/C (second compound 0.01 µM, first compound 3.16 µM): 121%
viability, T/C (second compound 0.01 µM, first compound 10 µM): 33.9%
viability, T/C [10]: 108%
viability, T/C [11]: 109%
viability, T/C [12]: 99.2%
viability, T/C [13]: 102%
viability, T/C (second compound 0.0316 µM, first compound 3.16 µM): 117%
viability, T/C (second compound 0.0316 µM, first compound 10 µM): 28.2%
viability, T/C [14]: 108%
viability, T/C [15]: 109%
viability, T/C [16]: 120%
viability, T/C [17]: 119%
viability, T/C (second compound 0.1 µM, first compound 3.16 µM): 131%
viability, T/C (second compound 0.1 µM, first compound 10 µM): 13.1%
viability, T/C [18]: 127%
viability, T/C [19]: 120%
viability, T/C [20]: 104%
viability, T/C [21]: 118%
viability, T/C (second compound 0.316 µM, first compound 3.16 µM): 132%
viability, T/C (second compound 0.316 µM, first compound 10 µM): 15.8%
viability, T/C [22]: 113%
viability, T/C [23]: 102%
viability, T/C [24]: 117%
viability, T/C [25]: 108%
viability, T/C (second compound 1 µM, first compound 3.16 µM): 118%
viability, T/C (second compound 1 µM, first compound 10 µM): 7.88%

O=C(c1cc(Cc2n[nH]c(=O)c3ccccc23)ccc1F)N1CCN(C(=O)C2CC2)CC1
viability, T/C (compound 0.0316 µM): 98.1% and 91.9% and 98.5%
viability, T/C (compound 0.1 µM): 95.8% and 101% and 97.5%
viability, T/C (compound 0.316 µM): 94.8% and 99% and 102%
viability, T/C (compound 1 µM): 95.9% and 94.6% and 98.1%
viability, T/C (compound 3.16 µM): 105% and 117% and 121%
viability, T/C (compound 10 µM): 103% and 112% and 135%
IC50 (curve of compound): > 10 µM

CCN1CCN(Cc2ccc(Nc3ncc(F)c(-c4cc(F)c5nc(C)n(C(C)C)c5c4)n3)nc2)CC1 + CNC(C)C(=O)NC1CN(S(=O)(=O)c2cccc(S(=O)(=O)N3CCC4CCC(C(=O)NC(c5ccccc5)c5ccccc5)N4C(=O)C(NC(=O)C(C)NC)C3)c2)CCC2CCC(C(=O)NC(c3ccccc3)c3ccccc3)N2C1=O
IC50 [1]: > 1 µM
IC50 [2]: > 1 µM
IC50 [3]: > 1 µM
IC50 [4]: > 1 µM
IC50 [5]: > 1 µM
viability, T/C (second compound 0.01 µM, first compound 0.00316 µM): 85.5%
viability, T/C (second compound 0.01 µM, first compound 0.01 µM): 110%
viability, T/C [6]: 109%
viability, T/C [7]: 129%
viability, T/C [8]: 123%
viability, T/C [9]: 114%
viability, T/C (second compound 0.0316 µM, first compound 0.00316 µM): 111%
viability, T/C (second compound 0.0316 µM, first compound 0.01 µM): 90.2%
viability, T/C [10]: 114%
viability, T/C [11]: 114%
viability, T/C [12]: 143%
viability, T/C [13]: 120%
viability, T/C (second compound 0.1 µM, first compound 0.00316 µM): 112%
viability, T/C (second compound 0.1 µM, first compound 0.01 µM): 120%
viability, T/C [14]: 118%
viability, T/C [15]: 132%
viability, T/C [16]: 143%
viability, T/C [17]: 107%
viability, T/C (second compound 0.316 µM, first compound 0.00316 µM): 107%
viability, T/C (second compound 0.316 µM, first compound 0.01 µM): 108%
viability, T/C [18]: 126%
viability, T/C [19]: 131%
viability, T/C [20]: 134%
viability, T/C [21]: 110%
viability, T/C (second compound 1 µM, first compound 0.00316 µM): 120%
viability, T/C (second compound 1 µM, first compound 0.01 µM): 113%
viability, T/C [22]: 118%
viability, T/C [23]: 138%
viability, T/C [24]: 148%
viability, T/C [25]: 120%

C#Cc1c(F)ccc2cc(O)cc(-c3ncc4c(N5CC6CCC(C5)N6)nc(OCC56CCCN5CC(F)C6)nc4c3F)c12 (centres undefined)
viability, T/C (compound 0.0316 µM): 103% and 107% and 88.1%
viability, T/C (compound 0.1 µM): 105% and 88.2% and 66.5%
viability, T/C (compound 0.316 µM): 76.8% and 48.2% and 40.8%
viability, T/C (compound 1 µM): 33.4% and 21.4% and 16.8%
viability, T/C (compound 3.16 µM): 19.4% and 12.1% and 11.2%
viability, T/C (compound 10 µM): 12.5% and 8.62% and 7.15%
IC50 (curve of compound): 0.649 µM and 0.306 µM and 0.204 µM
